{
  "source": "patent US20130252983A1",
  "about": "“ACTIVATING PHOSPHORYLATION SITE ON GLUTAMINASE C” (CORNELL UNIVERSITY, priority 2010, published 2013)",
  "key": {"[1]": {"tested_on": "NIH 3T3 cells stably expressing Cdc42(F28L), Rac(F28L), RhoC(F30L)", "experiment": "Soft-agar colony formation of cells expressing activated Rho GTPase mutants", "format": "cell-based, mouse", "settings": "10 μM, 14 days", "protocol": "(§1) FIGS. 2A-G illustrate effects of 968 on the transforming activity of constitutively active Rho GTPases and human breast cancer cells. […] Cells were scored after 14 days and plotted as the percentage of the total number of colonies greater than 50 μm in diameter. Data represent the average of 3 experiments (±s.d.). […] Data represent the average of 3 experiments (±s.d.). […] Data represent the average of 3 experiments (±s.d.). […] After 24 hours at 37° C., the migratory cells were fixed, stained with GIEMSA, and counted. Data represent the average of 3 experiments (±s.d.). […] Data represent the average of 3 experiments (±s.d.). […] Data represent the average of 3 experiments (±s.d.). […] Data represent the average of 3 experiments (±s.d.)."}, "V5-tagged wild-type GAC": {"target": "T1, V5-tagged wild-type GAC (Mus musculus, UniProt D3Z7P3)", "T1 construct": "expressed in transfected cells; host or cells: NIH 3T3 cells (stably expressing Dbl, or parental), transient transfection", "T1 sequence (D3Z7P3 55-603 isoform D3Z7P3-2 limits assumed)": "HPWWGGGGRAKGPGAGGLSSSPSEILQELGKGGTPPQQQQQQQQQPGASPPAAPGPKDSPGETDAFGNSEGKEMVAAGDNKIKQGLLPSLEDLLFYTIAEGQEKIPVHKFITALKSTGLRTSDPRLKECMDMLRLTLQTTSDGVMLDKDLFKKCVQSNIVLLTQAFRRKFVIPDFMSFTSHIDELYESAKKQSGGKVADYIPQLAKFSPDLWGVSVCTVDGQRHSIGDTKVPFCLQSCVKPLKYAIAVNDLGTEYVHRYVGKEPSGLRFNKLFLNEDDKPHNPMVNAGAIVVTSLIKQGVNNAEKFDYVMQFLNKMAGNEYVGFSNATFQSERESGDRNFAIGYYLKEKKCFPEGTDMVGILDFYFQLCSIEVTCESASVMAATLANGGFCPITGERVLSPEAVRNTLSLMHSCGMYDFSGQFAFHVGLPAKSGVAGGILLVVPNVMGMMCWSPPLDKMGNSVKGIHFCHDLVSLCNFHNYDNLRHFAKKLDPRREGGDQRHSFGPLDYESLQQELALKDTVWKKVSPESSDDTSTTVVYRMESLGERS", "experiment": "Glutaminase activity of V5-GAC immunoprecipitated from treated Dbl-transformed cells", "format": "cell-based", "settings": "10 μM, 48 hours", "from_the_text": "FIGS. 4A-E illustrate the role of glutaminase C activity in cellular transformation. […] Data represent the average of 3 experiments (±s.d.). […] Data represent the average of 3 experiments (±s.d.). […] 100% represents the activity measured in untreated Dbl-transformed cells. The data represent the average of 2 experiments. […] 100% represents the activity measured in untreated SKBR3 cells. The data represent the average of 2 experiments. […] Data represent the average of 3 experiments (±s.d.).\nNIH 3T3 cells stably expressing oncogenic Dbl were transiently transfected with DNA encoding VS-tagged GAC, and cells were treated with either 968 or BA-968 (10 μM) as indicated for 48 hours. The cells were then harvested and the ectopically expressed GAC was isolated by immunoprecipitation via the V5 tag. The samples were then assayed for glutaminase activity in the absence of phosphate (top panel) and the relative expression levels of V5-GAC was determined by Western blotting using an anti-V5 antibody (bottom panel).\nNext the effect of the substitution of an alanine for a serine at amino acid 103 on the enzymatic activity of GAC was examined, as well as its sensitivity to the small molecule, 968. […] Following transfection, the cells were treated for 48 hours with 968 (10 μM) and then harvested. […]"}, "SKBR3 cells": {"tested_on": "SKBR3 cells", "experiment": "Soft-agar colony formation, SKBR3", "format": "cell-based, human", "settings": "10 μM", "protocol": "as §1"}, "normal NIH 3T3 cells": {"tested_on": "normal NIH 3T3 cells", "experiment": "Growth and morphology of control NIH 3T3 cells", "format": "cell-based, mouse", "settings": "10% calf serum; 10 μM (growth), 5 μM (morphology)", "protocol": "FIGS. 1A-E illustrate that the small molecule 968 inhibits cellular transformation. […] Cells were fixed and stained with crystal violet for counting of foci. Right: 968 was serially diluted (10, 5, 2.5, and 1.25 μM) and evaluated for its ability to inhibit focus formation. […] After 6 days, the cells were counted. 100% represents the number of Dbl-transformed cells counted in the absence of 968 (27.5×10^4 cells). Data represent the average of 3 experiments (±s.d.). […] At the indicated times, the cells were counted. Data represent the average of 3 experiments (±s.d.)."}},
  "note": "“Also recorded” adds a separate entry of the source.",
  "data": [
    {"smiles": "CN(C)c1ccc(C2Nc3ccc4ccccc4c3C3=C2C(=O)CC(C)(C)C3)cc1Br", "note": "(centres unmarked) [Compound 968, 5-[3-bromo-4-(dimethylamino)phenyl]-2,2-dimethyl-2,3,5,6-tetrahydrobenzo[a]]", "values": [
      {"measurement": "colony formation in soft-agar", "setting": "[1]", "result": "blocking their ability"},
      {"measurement": "basal glutaminase activity of wild-type GAC", "setting": "V5-tagged wild-type GAC", "result": "susceptible to treatment"},
      {"measurement": "GA activity of immunoprecipitated V5-GAC", "setting": "V5-tagged wild-type GAC; absence of phosphate", "result": "inhibited; also recorded: effective inhibitors of GAC activity"},
      {"measurement": "colony formation in soft agar", "setting": "SKBR3 cells", "result": "inhibits the ability"},
      {"measurement": "effect on growth or morphology of normal NIH 3T3 cells", "setting": "normal NIH 3T3 cells", "result": "no significant effects"}
    ]}
  ]
}
